Like-named read-outs stand apart in the source and are kept apart here.

From patent publication US20260035367A1 (Celgene Corporation, priority 2021, published 2026) come the findings set out here.

The target in assay [1] is T1, Recombinant human PKC-delta (His-tagged 345-676) (Homo sapiens, UniProt Q05655).
T1 construct: PKC-delta (His-tagged 345-676); His
Put plainly: PKC-delta inhibition assay (HTRF KinEASE kit). In kind it is biochemical. The note with it: ratio, PKC-theta vs PKC-delta HTRF; for PKC-theta/PKC-delta selectivity (binned): binned A to G. On the technique in general: In TR-FRET formats the signal depends on donor and acceptor labels being close together.
Description: PKC-theta and PKC-delta biochemical activities were measured using the PKC-theta HTRF KinEASEkit kit, according to manufacturer's instructions (Cisbio, catalogue number 61ST1PEJ). Briefly, the kinase buffer component of the kit was supplemented with 10 mM MgCl2, 1 mM DTT and 0.1% Tween 20. […] The streptavidin_XL665 and STK antibody-cryptate detection reagents were mixed according to the manufacturer's instructions. Test compounds were diluted in DMSO in a series of 10 semi-log step doses; 10 nL of each compound dose were dispensed in 384 well plates. […] The reaction was started by addition of the substrate and ATP and incubated at 25° C. for 30 minutes or 20 minutes for the PKC-theta and PKC-delta assays, respectively. The detection reagents were added, and the plate was incubated in the dark for 2 hours. […] The ratio of acceptor and donor emission signals was calculated for each well.

The target of assay [2] is T2, Recombinant human PKC-theta (His-tagged 362-706) (Homo sapiens, UniProt Q04759).
T2 construct: Recombinant human PKC-theta (His-tagged 362-706); His
T2 sequence (Q04759 362-706): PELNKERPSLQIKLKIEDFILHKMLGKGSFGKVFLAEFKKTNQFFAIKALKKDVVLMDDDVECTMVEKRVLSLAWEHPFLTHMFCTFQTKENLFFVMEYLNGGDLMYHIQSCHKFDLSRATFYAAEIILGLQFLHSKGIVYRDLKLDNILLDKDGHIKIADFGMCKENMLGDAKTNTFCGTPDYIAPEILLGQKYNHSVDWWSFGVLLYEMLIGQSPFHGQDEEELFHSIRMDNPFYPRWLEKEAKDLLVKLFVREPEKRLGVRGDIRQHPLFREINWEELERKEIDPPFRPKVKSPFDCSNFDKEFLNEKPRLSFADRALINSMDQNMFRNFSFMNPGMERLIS
Kind of assay: PKC-theta inhibition assay (HTRF KinEASE kit). The note with it: ATP 6.5 μM, STK substrate 525 nM. Format: biochemical. Put shortly:
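IC50 values were from 4-parameter logistic fits of percent inhibition, based on acceptor/donor HTRF ratios over 10 semi-log compound doses. Kinase reactions, started with substrate plus ATP, ran 30 min at 25 °C in buffer supplemented with 10 mM MgCl2, 1 mM DTT and 0.1% Tween 20; detection lasted 2 h.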

The test system of assay [3] is IL-2 secretion by human effector memory T cells (TEM). Kind of assay: Effector memory T cells IL-2 release assay (CD3/CD28 stimulation, HTRF IL-2 detection). Format: cell-based. The note with it: 24 h; for IC50: Homo sapiens, T-cell. The method, boiled down:
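Human effector memory T cells from healthy-donor buffy coats were exposed in triplicate to ten semi-log doses of compound in 0.1% DMSO. The cells were stimulated and incubated 24 h at 37 °C. Secreted IL-2 in the supernatant was measured by HTRF.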

The mark [4] stands for this setting: binned A to H, read-out: PKC-theta HTRF pIC50 (binned) (converted).
[5] abbreviates: read-out: PKC-theta HTRF pIC50 (converted).
Setting [6] is: binned A to G, read-out: PKC-theta IL2 pIC50 (binned) (converted).
Setting [7] is: read-out: PKC-theta IL2 pIC50 (converted).

T1 sequence (Q05655 345-676): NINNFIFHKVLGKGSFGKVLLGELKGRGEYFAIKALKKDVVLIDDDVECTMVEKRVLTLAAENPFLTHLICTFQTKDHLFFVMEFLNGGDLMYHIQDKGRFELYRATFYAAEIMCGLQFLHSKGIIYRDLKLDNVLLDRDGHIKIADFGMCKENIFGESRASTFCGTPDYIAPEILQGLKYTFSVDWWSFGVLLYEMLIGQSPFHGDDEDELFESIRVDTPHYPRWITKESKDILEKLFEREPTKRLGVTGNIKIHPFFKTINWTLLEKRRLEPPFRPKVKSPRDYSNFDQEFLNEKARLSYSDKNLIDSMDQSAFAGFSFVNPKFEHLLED

For `CC1(C)C(=O)Nc2nccc(-c3cc(C(F)(F)F)cc(N4CC5CC(C4)N5)n3)c21` [Example 150], the PKC-theta/PKC-delta selectivity in assay [1] came to 13. In addition, the “PKC-theta/PKC-delta selectivity (binned)” value in assay [1] is “D (a ratio of between 10 and 20)”. Further, the IC50 in assay [2] (setting [4]) was 31.6 to 100 nM; in assay [2] (setting [5]), 63.1 nM; in assay [3] (setting [6]), greater than 1000 nM; in assay [3] (setting [7]), 1260 nM.
For `CO[C@]1(C)C(=O)Nc2nccc(-c3cc(C(F)(F)F)cc(N4CCNC[C@H]4C)n3)c21` (single isomer, unassigned) [Example 176], in assay [1], the PKC-theta/PKC-delta selectivity is on record as 20; the “PKC-theta/PKC-delta selectivity (binned)” value is “C (a ratio of between 20 and 30)”. The IC50 in assay [2] (setting [4]) is 10 to 31.6 nM. Also, the IC50 in assay [2] (setting [5]) was 12.6 nM. Besides, the “PKC-theta IL2 pIC50” value in assay [3] is recorded as 6.9. In assay [3] (binned A to G), the “PKC-theta IL2 pIC50 (binned)” value was “E (a measured pIC50 of between 6.5 and 7.0)”.
As for `CC[C@]1(O)C(=O)Nc2nccc(-c3cc(Cl)cc(N4CCN[C@@H](C)C4)n3)c21` (single isomer, unassigned) [Example 163], in assay [1], the PKC-theta/PKC-delta selectivity stood at 10. Moreover, the “PKC-theta/PKC-delta selectivity (binned)” value in assay [1] is “D (a ratio of between 10 and 20)”. Besides, the IC50 was 3.16 to 10 nM in assay [2] (setting [4]), 3.98 nM in assay [2] (setting [5]), 10 to 31.6 nM in assay [3] (setting [6]) and 31.6 nM in assay [3] (setting [7]).
For the molecule `C[C@H]1CN(c2cccc(-c3ccnc4c3C(C)(C)C(=O)N4)c2)CCN1` [Example 52], in assay [1], the PKC-theta/PKC-delta selectivity came out at 2. Moreover, the “PKC-theta/PKC-delta selectivity (binned)” value in assay [1] was “F (a ratio of between 1 and 5)”. Further, the IC50 was 100 to 316 nM in assay [2] (setting [4]), 126 nM in assay [2] (setting [5]), greater than 1000 nM in assay [3] (setting [6]) and 1580 nM in assay [3] (setting [7]).
Regarding `CC[C@]1(C)C(=O)Nc2nccc(-c3cc(C(C)(F)F)cc(N4CCN[C@@H](C)C4)n3)c21` (single isomer, unassigned) [Example 199], the PKC-theta/PKC-delta selectivity in assay [1] came to 16. Moreover, in assay [1], the “PKC-theta/PKC-delta selectivity (binned)” value was “D (a ratio of between 10 and 20)”. Also, the IC50 is 1 to 3.16 nM in assay [2] (setting [4]), 1.58 nM in assay [2] (setting [5]), 10 to 31.6 nM in assay [3] (setting [6]) and 25.1 nM in assay [3] (setting [7]).
For `CCC1(O)C(=O)Nc2nccc(-c3cc(C(F)(F)F)cc(N4CCNC[C@H]4C)n3)c21` (stereo partly drawn) [Example 131], the PKC-theta/PKC-delta selectivity in assay [1] is listed as 6. Besides, the “PKC-theta/PKC-delta selectivity (binned)” value in assay [1] was “E (a ratio of between 5 and 10)”. The IC50 in assay [2] (setting [4]) is 3.16 to 10 nM; in assay [2] (setting [5]), 3.98 nM; in assay [3] (setting [6]) it was 31.6 to 100 nM; in assay [3] (setting [7]), 39.8 nM.
As for `O=c1[nH]c2nccc(-c3cc(N4CCNCC4)ccc3F)c2[nH]1` [Example 15], the PKC-theta/PKC-delta selectivity in assay [1] amounted to 3. Besides, the “PKC-theta/PKC-delta selectivity (binned)” value in assay [1] is “F (a ratio of between 1 and 5)”. Also, the IC50 in assay [2] (setting [4]) is 316 to 1000 nM; in assay [2] (setting [5]), 501 nM; in assay [3] (setting [6]), greater than 1000 nM; in assay [3] (setting [7]), 10000 nM.
As to `O=c1[nH]c2nccc(-c3cccc(N4CCNCC4)c3)c2o1` [Example 6], the PKC-theta/PKC-delta selectivity in assay [1] was 2. The “PKC-theta/PKC-delta selectivity (binned)” value in assay [1] was “F (a ratio of between 1 and 5)”. Further, the IC50 was greater than 1000 nM in assay [2] (setting [4]), 1000 nM in assay [2] (setting [5]), greater than 1000 nM in assay [3] (setting [6]) and 10000 nM in assay [3] (setting [7]).
Regarding `COC[C@@H]1CN(c2cc(C(F)(F)F)cc(-c3ccnc4c3C(C)(C)C(=O)N4)n2)CCN1` [Example 120], in assay [1], the PKC-theta/PKC-delta selectivity is 15. The “PKC-theta/PKC-delta selectivity (binned)” value in assay [1] was “D (a ratio of between 10 and 20)”. Further, the IC50 in assay [2] (setting [4]) is 10 to 31.6 nM; in assay [2] (setting [5]), 25.1 nM; in assay [3] (setting [6]), 316 to 1000 nM; in assay [3] (setting [7]), 501 nM.
Regarding `CC1(C)C(=O)Nc2ncc(C#N)c(-c3cc(F)cc(N4CCNCC4)c3)c21` [Example 64], the PKC-theta/PKC-delta selectivity in assay [1] was 2. The “PKC-theta/PKC-delta selectivity (binned)” value in assay [1] is “F (a ratio of between 1 and 5)”. Also, the IC50 in assay [2] (setting [4]) was 316 to 1000 nM; in assay [2] (setting [5]), 501 nM; in assay [3] (setting [6]) it was greater than 1000 nM; in assay [3] (setting [7]) it was 5010 nM.
As to `CC1(C)C(=O)Nc2nccc(-c3cc(C(F)(F)F)cc(N4CC5CCC4CN5)n3)c21` (stereo not drawn) [Example 137], in assay [1], the PKC-theta/PKC-delta selectivity turned out to be 16. The “PKC-theta/PKC-delta selectivity (binned)” value in assay [1] was “D (a ratio of between 10 and 20)”. Further, the IC50 in assay [2] (setting [4]) was 10 to 31.6 nM; in assay [2] (setting [5]), 12.6 nM; in assay [3] (setting [6]), 100 to 316 nM; in assay [3] (setting [7]) it was 251 nM.
As to `C[C@@H]1CNCCN1c1cc(Cl)cc(-c2ccnc3c2[C@](C)(O)C(=O)N3)n1` (single isomer, unassigned) [Example 105], the PKC-theta/PKC-delta selectivity in assay [1] is on record as 7. The “PKC-theta/PKC-delta selectivity (binned)” value in assay [1] is “E (a ratio of between 5 and 10)”. For the same molecule, the IC50 in assay [2] (setting [4]) is 0.316 to 1 nM; in assay [2] (setting [5]), 1 nM; in assay [3] (setting [6]), 10 to 31.6 nM; in assay [3] (setting [7]) it was 20 nM.
With `CC[C@@]1(C)C(=O)Nc2nccc(-c3cc(C(C)(F)F)cc(N4CCNC[C@H]4C)n3)c21` (single isomer, unassigned) [Example 202], the PKC-theta/PKC-delta selectivity in assay [1] is given as 22. In addition, the “PKC-theta/PKC-delta selectivity (binned)” value in assay [1] was “C (a ratio of between 20 and 30)”. The IC50 is 3.16 to 10 nM in assay [2] (setting [4]), 3.98 nM in assay [2] (setting [5]), 31.6 to 100 nM in assay [3] (setting [6]) and 50.1 nM in assay [3] (setting [7]).
Regarding `C[C@@H]1CNCCCN1c1cc(C(F)(F)F)cc(-c2ccnc3c2C(C)(C)C(=O)N3)n1` [Example 190], the PKC-theta/PKC-delta selectivity in assay [1] was 32. Also, the “PKC-theta/PKC-delta selectivity (binned)” value in assay [1] was “B (a ratio of between 30 and 50)”. The IC50 in assay [2] (setting [4]) is 3.16 to 10 nM; in assay [2] (setting [5]), 3.16 nM; in assay [3] (setting [6]), 31.6 to 100 nM; in assay [3] (setting [7]), 79.4 nM.
On to `O=c1[nH]c2nccc(-c3cc(C(F)(F)F)cc(N4CCNCC4)n3)c2[nH]1` [Example 68], for which, in assay [1], the PKC-theta/PKC-delta selectivity was determined as 11. Further, the “PKC-theta/PKC-delta selectivity (binned)” value in assay [1] was “D (a ratio of between 10 and 20)”. Further, the IC50 in assay [2] (setting [4]) was 31.6 to 100 nM; in assay [2] (setting [5]), 31.6 nM; in assay [3] (setting [6]) it was 316 to 1000 nM; in assay [3] (setting [7]) it was 501 nM.
Consider `CC(F)(F)c1cc(-c2c(F)cnc3c2C(C)(C)C(=O)N3)nc(N2CCNCC2)c1` [Example 174], for which, in assay [1], the PKC-theta/PKC-delta selectivity turned out to be 10. Besides, in assay [1], the “PKC-theta/PKC-delta selectivity (binned)” value was “D (a ratio of between 10 and 20)”. Besides, the IC50 in assay [2] (setting [4]) was 31.6 to 100 nM; in assay [2] (setting [5]), 31.6 nM; in assay [3] (setting [6]) it was 100 to 316 nM; in assay [3] (setting [7]), 316 nM.
For `CC[C@H]1CN(c2cc(Cl)cc(-c3ccnc4c3C(O)(CC)C(=O)N4)n2)CCN1` (stereo partly drawn) [Example 143], in assay [1], the PKC-theta/PKC-delta selectivity is 8. Also, the “PKC-theta/PKC-delta selectivity (binned)” value in assay [1] was “E (a ratio of between 5 and 10)”. Further, the IC50 in assay [2] (setting [4]) is 3.16 to 10 nM; in assay [2] (setting [5]), 3.98 nM; in assay [3] (setting [6]) it was 31.6 to 100 nM; in assay [3] (setting [7]) it was 31.6 nM.
Take `O=C1Nc2nccc(-c3cc(F)cc(N4CCNCC4)c3)c2C12CC2` [Example 34]: the PKC-theta/PKC-delta selectivity in assay [1] was 2. In assay [1], the “PKC-theta/PKC-delta selectivity (binned)” value was “F (a ratio of between 1 and 5)”. The IC50 in assay [2] (setting [4]) is greater than 1000 nM; in assay [2] (setting [5]), 1000 nM; in assay [3] (setting [6]), greater than 1000 nM; in assay [3] (setting [7]), 3980 nM.
